Legend:
[1] = Inhibition of acinetobacter-derived cephalosporinase
[2] = Inhibition of beta-lactamase SHV1
[3] = Inhibition of beta-lactamase TEM1 expressed in Escherichia coli JM109
[4] = Inhibition of beta-lactamase CTX-M-9 expressed in Escherichia coli BL21(DE3)
[5] = Inhibition of beta-lactamase AmpC expressed in Escherichia coli

Row | Compound | Ki [1] [nM] | Ki [2] [nM] | Ki [3] [nM] | Ki [4] [nM] | Ki [5] [nM]
1 | CCN1CCN(C(=O)N[C@@H](C(=O)NCB(O)O)c2ccc(O)cc2)C(=O)C1=O [CEFOPERAZONE BATSI] | 600 | 17000 | – | – | –
2 | CCN1CCN(C(=O)N[C@H](Cc2ccc(O)cc2)C(=O)NCB2OC(C)(C)C(C)(C)O2)C(=O)C1=O | – | 9800 | – | – | –
3 | CC(C)(O/N=C(\C(=O)NCB(O)O)c1csc(N)n1)C(=O)O [CEFTAZIDIME BATSI] | 310 | – | 390 | 15 | 20

— ChEMBL document CHEMBL1687831 (Antimicrob Agents Chemother, 2011)
